Entries after “also recorded” stand apart in the source; their conditions may differ.
Legend:
[1] = tested on: intracellular calcium levels; assay: Intracellular calcium levels after tolvaptan; assay type: cell-based; conditions: treatment with Tolvaptan; CTR=67.06±2.6 nM, P<0.0001
Description: The treatment with Tolvaptan determines an increase of the intracellular calcium levels (TLV=99.6±4.1 nM; CTR=67.06±2.6 nM, P<0.0001).

V2 receptor = biological target: T1, V2 receptor (Canis lupus familiaris, UniProt O77808); assay: dDAVP-induced intracellular cAMP levels (1/netFRET) in MDCK cells; assay type: cell-based, canine; conditions: dDAVP+TLV vs. dDAVP and CTR
T1 construct: canine kidney cells MDCK endogenously expressing the V2 receptor; endogenous in cells; host or cells: MDCK (canine kidney cells)
From the text: The effects of the antagonists of the vasopressin receptor on the concentration of intracellular cAMP have been studied in the canine kidney cells MDCK endogenously expressing the V2 receptor.
Such a reduction of the cAMP levels has been detected through 1/netFRET.
Thus, the treatment with Tolvaptan leads to a reduction of the intracellular cAMP levels. The cAMP levels have been measured through 1/netFRET.

mTOR signaling pathway [2] = assay: mTOR signaling: S6 ribosomal protein phosphorylation, ciPTEC-PC1Pt cells; assay type: cell-based, human; conditions: 10 μM
From the text: (§1) The experiments described from Example 1 to Example 5 have been carried out on i) ciPTEC human kidney cells of the proximal tubule isolated from healthy subjects (ciPTECwt), ii) on the same cells silenced for the gene encoding the polycystin 1 (ciPTE-PC1KO) and iii) on ciPTEC cells isolated from patients affected by ADPKD (ciPTEC-PC1Pt).
(§2) In the present example, the activity of mTOR has been studied by detecting the phosphorylation levels of the S6 ribosomal protein.
(§3) By treating the aforementioned cells with the calciomimetic tecalcet at the concentration of 10 μM, the activity of mTOR is reduced, thus decreasing the S6 phosphorylation.

ciPTEC-PC1Pt cells [3] = assay: Intracellular cAMP levels after tecalcet (FRET), ciPTEC-PC1Pt cells; assay type: cell-based, human; conditions: 10 μM, 1/netFRET
From the text: as §1
(§4) Such cAMP levels have been measured through FRET.
(§5) The cAMP levels have been measured through 1/netFRET.

ciPTEC-PC1Pt cells [4] = assay: Intracellular calcium levels after tecalcet (Fura 2), ciPTEC-PC1Pt cells; assay type: cell-based, human; conditions: 10 μM, ciPTEC-PC1Pt cells (ADPKD patients), n=30
Description: as §1
(§6) Three types of the aforementioned cellular lines have been treated with 10 μM calciomimetic tecalcet, and the result is that the ciPTEC-PC1Pt cells, isolated from patients suffering from the polycystic kidney disease, respond similarly to the ciPTECwt cells to the stimulation with the calciomimetic, thus leading to an increase of intracellular calcium levels (FIG. 4). Such intracellular calcium levels, in the present example, have been detected thanks to the colorant Fura 2 that is sensitive to calcium.
(§7) The ciPTEC-PC1Pt cells respond similarly to the ciPTECwt cells to the stimulation with NPS-R568 calciomimetic, also called tecalcet, at a concentration of 10 μM. […] The intracellular calcium levels have been measured through the colorant Fura 2 that is sensitive to calcium.

ciPTECwt cells = assay: Intracellular calcium levels after tecalcet (Fura 2), ciPTECwt cells; assay type: cell-based, human; conditions: 10 μM, n=40
Description: as §1, §6, §7

mTOR signaling pathway [5] = assay: mTOR signaling: S6 ribosomal protein phosphorylation, ciPTEC-PC1KO cells; assay type: cell-based, human; conditions: 10 μM
From the text: as §1, §2, §3

ciPTEC-PC1KO cells [6] = assay: Intracellular calcium levels after tecalcet (Fura 2), ciPTEC-PC1KO cells; assay type: cell-based, human; conditions: 10 μM, n=47
Description: as §1, §6, §7

ciPTEC-PC1KO cells [7] = assay: Intracellular cAMP levels after tecalcet (FRET), ciPTEC-PC1KO cells; assay type: cell-based, human; conditions: 10 μM, 1/netFRET
From the text: as §1, §4, §5

T1 sequence (O77808 whole entry): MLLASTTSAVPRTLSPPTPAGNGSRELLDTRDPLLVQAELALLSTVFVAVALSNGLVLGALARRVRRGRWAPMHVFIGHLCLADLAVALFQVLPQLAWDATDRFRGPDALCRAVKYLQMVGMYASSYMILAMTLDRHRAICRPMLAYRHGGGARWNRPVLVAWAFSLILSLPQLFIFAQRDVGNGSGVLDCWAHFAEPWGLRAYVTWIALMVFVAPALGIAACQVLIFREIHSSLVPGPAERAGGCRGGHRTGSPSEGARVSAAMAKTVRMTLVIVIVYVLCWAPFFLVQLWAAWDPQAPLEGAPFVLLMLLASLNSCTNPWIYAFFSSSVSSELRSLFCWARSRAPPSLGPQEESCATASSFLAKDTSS

Row | cAMP levels induced by vasopressin (dDAVP) (V2 receptor) | Structure (SMILES) | intracellular calcium levels [1] | S6 phosphorylation levels (mTOR activity) (mTOR signaling pathway [2]) | basal intracellular cAMP levels (ciPTEC-PC1Pt cells [3]) | intracellular calcium levels, response vs. ATP 100% (ciPTEC-PC1Pt cells [4]) | intracellular calcium levels, response vs. ATP 100% (ciPTECwt cells) | S6 phosphorylation levels (mTOR activity) (mTOR signaling pathway [5]) | intracellular calcium levels, response vs. ATP 100% (ciPTEC-PC1KO cells [6]) | basal intracellular cAMP levels (ciPTEC-PC1KO cells [7])
1 | comparable to those of the control | Cc1ccccc1C(=O)Nc1ccc(C(=O)N2CCCC(O)c3cc(Cl)ccc32)c(C)c1 (stereo not drawn) [Tolvaptan] | 99.6 ± 4.1 nM | – | – | – | – | – | – | –
2 | – | COc1cccc([C@@H](C)NCCCc2ccccc2Cl)c1 [tecalcet] | – | reduces the phosphorylation of S6 | reduces the basal cAMP levels | 29.51±3.93% | 90.68±2.47% | comparable levels to those observed in the ciPTECwt cells; also recorded: reduces the phosphorylation of S6 | 24.32±2.59% | reduces the basal cAMP levels
